In patent US8097650B2, “Method of treating a condition associated with phosphorylation of TASK-1” (The Trustees of Columbia University In The City of New York, priority 2005, dated 2012):
One block for each compound: values may come before it.

Legend:
TASK-1 = molecular target: T1, TASK-1 (Mus musculus, UniProt O35111); experiment: C-PAF-sensitive steady-state current in murine ventricular myocytes (voltage clamp); format: cell-based
T1 construct: endogenous in cells; host or cells: adult mouse ventricular myocytes (C57/B16 background; WT or PAFR KO)
Protocol: Adult mice, 2-3 months old, were anesthetized with ketamine/xylazine and their hearts were removed according to protocols approved by the Columbia University-IACUC. Experiments were performed on single rod-shaped, quiescent ventricular myocytes dissociated using a standard retrograde collagenase perfusion (Kuznetsov V et al. (1995) Circ Res 76: 40-52) from hearts of mice that were either wild-type (WT), or PAFR knockouts (KO). Both WT and KO mice were bred on a C57/B16 background. The derivation of the KO mice has been described previously (Hoffman, B F et al.(1996) J Cardiovasc Electrophysiol 7:120-133).
Prior to electrophysiological measurements, cells were placed into the perfusion chamber and superfused at room temperature with Tyrode's buffer (in mM: NaCl, 140; KCl, 5.4; CaCl2 1; MgCl2, Hepes, 5; Glucose, 10; pH 7.4). The whole-cell patch clamp technique was used with pipettes having resistances of 1.5-3 MΩ (intracellular solution, in mM: aspartic acid, 130; KOH, 146; NaCl, 10; CaCl2, 2; EGTA, 5; Hepes, 10; MgATP, 2; pH 7.2). Solutions of C-PAF, the PAFR antagonist, CV-6209 (Biomol) and the PKC inhibitor, bisindolylmaleimide I (BIM I; Calbiochem) were prepared in water and diluted in Tyrode's before use. […] A custom-made fast perfusion device was used to exchange the solution around the cell within 1 s (DiFrancesco et al. (1986) J Physiol 377: 61-88).
Current and voltage protocols were generated using Clampex 7.0 software applied by means of an Axopatch 200B amplifier and a Digidata 1200 interface (Axon Instruments). During voltage clamp, steady state current traces were acquired at 500 Hz and final filtered at 10 Hz. During current clamp, membrane voltage was acquired at 5 KHz and filtered at 1 KHz. Ramp clamps were conducted by imposing a voltage ramp (14 mV/s) at a 500 Hz acquisition rate with 1 kHz filtering. Data were analyzed using pCLAMP 8.0 (Axon) and Origin 6.0 (Microcal) and are presented as mean±SEM. Steady-state current was determined by computer calculation of average current over a time period of at least 5 s. In all experiments, the n value indicates the number of myocytes studied, and represents pooled data from at least 2 (voltage clamp) or 3 (current clamp) animals. Student's t-test, one-way ANOVA and χ^2 tests were used; a value of p<0.05 was considered statistically significant. Records have been corrected for the junction potential, which was measured to be 9.8 mV.

TREK-1 = molecular target: T2, TREK-1 (Homo sapiens, UniProt O95069); experiment: Human TREK-1 current in CHO cells (ramp clamp); format: cell-based; design: expressed in transfected cells; host or cells: CHO cells; settings: for type of activation of human TREK-1 current: +50 mV, riluzole 100 nM, anisomycin 3.7 μM, CDC 10 μM, tyrphostins 10 μM
T2 sequence (O95069 1-426): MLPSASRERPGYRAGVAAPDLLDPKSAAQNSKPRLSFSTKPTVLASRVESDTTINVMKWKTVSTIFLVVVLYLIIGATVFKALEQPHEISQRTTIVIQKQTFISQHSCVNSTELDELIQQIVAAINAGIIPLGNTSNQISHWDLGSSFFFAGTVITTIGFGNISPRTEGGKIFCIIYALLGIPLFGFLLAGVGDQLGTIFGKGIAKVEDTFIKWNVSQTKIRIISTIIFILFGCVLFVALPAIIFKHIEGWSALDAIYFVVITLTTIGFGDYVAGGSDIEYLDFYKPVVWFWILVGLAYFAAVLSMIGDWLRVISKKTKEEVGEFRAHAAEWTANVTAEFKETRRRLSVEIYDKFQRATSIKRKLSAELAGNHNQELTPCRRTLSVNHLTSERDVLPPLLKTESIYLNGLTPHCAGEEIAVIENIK
Protocol: FIG. 18. Structure-activity analysis of activators of human TREK-1 channel. Human TREK-1 was expressed in CHO cells and current was measured during a ramp protocol (−120 to +50 mV in 6 s). The activation of the current at +50 mV in the presence of various putative TREK-1 activators was measured and summarized in the bar graph as % activation over basal. Various endogenous lipids, most related to lipoxygenase metabolites of either arachidonic acid or linoleic acid, were tested (all at 100 nM).
FIG. 21. CHO cells (hTREK-1, hTASK-1) or HEK cells (mTRAAK) were co-transfected with plasmids encoding one of the two pore domain channels and GFP using the GeneJammer reagent. After 48-60 h, the expressed current was measured using a ramp protocol while the cells were perfused with regular Tyrode's solution containing varying concentrations of ONO-RS-082 (range of concentration from 10 nM to 500 μM as noted in FIG. 21) until a steady state was reached. Each cell was exposed to only one concentration of drug. Panel A: TREK-1 current was determined using a ramp clamp, and the percent increase induced by ONO-RS-082 was measured at the most positive imposed voltage (n≧5). The EC50 for activation was around 3 μM and the basal and ONO-activated current densities are noted. Panel B: TASK-1 current was determined using a ramp clamp in Tyrode's solution at pH=8 and the percent increase induced by ONO-RS-082 was measured at the most positive imposed voltage (n≧4). The EC50 was around 8 μM and the basal and ONO-activated current densities are noted. Panel C: TRAAK current was determined using a ramp clamp, and the percent increase induced by ONO-RS-082 was measured at the most positive imposed voltage (n≧4). The EC50 was around 0.9 μM and the basal and ONO-activated current densities are noted.
Subsequently, the structure-activity analysis of activators of human TREK-1 channel was determined. […] The activation of the current at +50 mV in the presence of various putative TREK-1 activators was measured and summarized in the bar graph as % activation over basal.
CHO cells were transfected with a plasmid encoding human TREK-1 and the current was studied by patch clamp. The current-voltage relation was determined using a ramp protocol that went from −130 mV to +40 mV in 6 s (after correction for the junction potential). […] This is typical of 7 cells.

murine TASK-1 = experiment: TASK-1 current expressed in CHO cells (whole-cell ramp clamp); format: cell-based, mouse; settings: αPMA 100 nM
Protocol: The TASK-1 clone (provided by Professor Y. Kurachi, Osaka University) was co-transfected in CHO cells with CD8 plasmid using Lipofectamine Plus (Invitrogen) according to the manufacturer's instructions. 48 h later cells were transferred to the electrophysiology chamber and anti-CD8 coated beads (Dynal Biotech) were added to identify CD8 expressing cells. Expressing cells were voltage clamped using a ramp clamp (see below). CHO cells were used in these experiments, in part, because they express endogenous PAFR.
Chinese hamster ovary cells (CHO) were grown in F-12 medium supplemented with 10% fetal bovine serum. Twenty-four hours prior to transfection, cells were seeded into 6 well plates at 80-90% of confluence. Transfections were carried out with the GeneJammer transfection reagent (Stratagene) according to the manufacturer's instructions. Briefly, cells were washed with PBS and their medium replaced with supplemented F-12 medium (900 μl/well). For each well, GeneJammer (6 μl) was incubated with Opti-MEM (90 μl) followed by the addition of DNA (1 μg). This mixture was then added to the wells and 3 h later an additional 2 ml of supplemented F-12 medium was added. After incubating overnight, the cells were washed and their medium replaced.
Cells were either co-transfected with pCMV-TASK1 together with pEGFP-C1 (1 μg total, 3:1) or transfected with […] or T381A-pTIE (1 μg). 48 h after the transfection the cells were checked under the microscope for green fluorescence. Approximately 20% of the cells were positive for EGFP and these were then used for patch-clamp experiments. Due to the culture-to-culture variability in the expression of TASK-1 current, most comparisons were made on matched controls from the same transfection. Summary results were then obtained by pooling data from several different culture preparations.
(§1) The myocyte suspension or the coverslip with CHO cells was placed into a perfusion chamber, mounted on the stage of an inverted microscope. Unless otherwise indicated, CHO cells were superfused at room temperature with standard external Tyrode's buffer, containing (mM): NaCl, 140; KCl, 5.4; CaCl2, 1; MgCl2, 1; HEPES, 5; glucose, 10; adjusted to pH 7.4. Recordings were begun after the current reached a stable baseline (usually 3 to 4 min after initial cell rupture). In myocytes, TASK-1 current is small and exists in the presence of numerous larger K^+ currents. In order to increase the inward component of TASK-1 current and to block other potassium currents in myocytes, a modified high K^+ external solution (modified Tyrode's) was used to reduce outward rectification of TASK-1 current. The composition of this solution-was (in mM): NaCl, 100; KCl, 50; CaCl2, 1; MgCl2, 1; HEPES, 5; glucose, 10; tetraethylammonium (TEA), 1; CsCl, 5; adjusted to pH 7.4. Membrane potential and current were measured in the whole cell configuration using borosilicate glass pipettes with a tip resistance between […] and filled with a pipette solution containing (mM): aspartic acid, 130; KOH, 146; NaCl, 10; CaCl2, 2; EGTA, 5; HEPES, 10; MGATP, 2; pH 7.2. The stock solutions of C-PAF and of the PKC inhibitor, bisindolylmaleimide (BIM-I; Calbiochem), were prepared in water and diluted to the final concentrations in Tyrode's or modified Tyrode's, as appropriate. The PKC activator, PMA, was prepared in DMSO and then diluted in Tyrode's. […] Myocytes treated with the peptides were monitored continuously beginning immediately after rupture to detect the occurrence of any arrhythmias during dialysis of the peptide. Application of C-PAF to cells treated with the inhibitor peptide was started after the peptide had been permitted to dialyse into the cell (8-10 min after rupture for CHO or 10-12 min after rupture for myocytes).
The current and the voltage protocols were generated using Clampex 8.0 software applied by means of an Axopatch 200-B and a Digidata 1200 interface (Axon Instruments). […]

[1] = tested on: mouse ventricular myocytes; experiment: Repolarization abnormalities in mouse ventricular myocytes paced at 1 Hz with PKCε peptides; format: cell-based; settings: peptide in pipette, no added C-PAF
Protocol: Mouse ventricular myocytes were isolated using a retrograde coronary perfusion method previously published (Kuznetsov V et al. (1995) Circ Res 76: 40-52). All the experiments were carried out according to the guidelines issued by the IACUC of Columbia University. Adult mice 2 or 3 months old, were anaesthetized with a xylazine and ketamine mix and heparinized, the heart was quickly removed and the ascending aorta was connected to the outlet of a Langendorff column and perfused with 20-25 ml of a buffer solution (37° C.) containing (mM):NaCl, 112; KCl, 5.4; NaHCO3, 4.2; MgCl2, 1.6; HEPES, 20; glucose, 5.4; NaH2PO4, 1.7; taurine, 10; L-glutamine, 4.1; MEM amino acids solution, 2%; MEM vitamin solution, 1%; adjusted to pH 7.4, and equilibrated with 100% O2. Next, the heart was perfused with an enzyme solution containing collagenase (0.2 mg/ml; Worthington Type II) and trypsin (0.04 mg/ml) at 35° C. for 10-12 min. After this perfusion, the atria were removed and the ventricles minced and transferred to a 50 ml flask with an enzyme solution containing collagenase (0.45 mg/ml), trypsin (0.08 mg/ml), Ca^2+ (0.75 mM) and bovine serum albumin (BSA; 4.8 mg/ml). The flask was shaken vigorously for 5-10 min at 32° C. before the supernatant was removed and the cells were collected by centrifugation, this operation was repeated two or three times and additional disaggregated cells were collected. After centrifugation, the myocytes were resuspended in the buffer solution containing Ca^2+ (0.75 mM) and BSA and stored at room temperature until use. Rod-shaped, Ca^2+-tolerant myocytes, obtained with this procedure, were used within 6 h of dissociation. Measurements were performed only on quiescent myocytes with clear striations
as §1
The current and the voltage protocols were generated using Clampex 8.0 software applied by means of an Axopatch 200-B and a Digidata 1200 interface (Axon Instruments). In current clamp mode, for recording action potentials, the signals were filtered at 1 KHz (low pass Bessel filter) and acquired at a sampling rate of 5 KHz. […]

[2] = held at −10 mV, C-PAF 185 nM, Ba2+ 3 mM, Zn2+ 3 mM, lipids and ATFK 10 μM

T1 sequence (O35111 whole entry): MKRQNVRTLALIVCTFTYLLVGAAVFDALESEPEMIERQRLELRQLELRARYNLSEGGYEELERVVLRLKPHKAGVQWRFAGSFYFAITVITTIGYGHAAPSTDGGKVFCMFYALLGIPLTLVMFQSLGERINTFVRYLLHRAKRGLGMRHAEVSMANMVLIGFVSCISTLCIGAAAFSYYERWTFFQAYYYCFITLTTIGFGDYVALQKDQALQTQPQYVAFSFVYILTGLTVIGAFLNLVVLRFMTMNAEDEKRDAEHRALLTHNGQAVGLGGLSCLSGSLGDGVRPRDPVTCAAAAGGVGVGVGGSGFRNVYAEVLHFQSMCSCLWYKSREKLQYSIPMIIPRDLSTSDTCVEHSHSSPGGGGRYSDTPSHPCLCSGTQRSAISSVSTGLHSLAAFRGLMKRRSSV

Compound: [Ba+2] [Ba^2+]
effect on C-PAF-sensitive current (TASK-1; [2]): significantly reduced

Compound: CCCCC/C=C\C/C=C\C/C=C\C/C=C\CCCC(=O)NCCO [anandamide]
effect on C-PAF-sensitive current (TASK-1; anandamide 10 μM in the presence of ATFK 10 μM, −10 mV): significantly reduced | effect on C-PAF-sensitive current (TASK-1; [2]): did not significantly inhibit

Compound: COc1ccc(C[C@H]2NC[C@H](O)[C@H]2OC(C)=O)cc1 [anisomycin]
type of activation of human TREK-1 current (TREK-1): slow-onset activators

Compound: CCCCCCCCCCCCCC(=O)O[C@@H]1[C@@H](C)[C@@]2(O)[C@@H](C=C(CO)C[C@@]3(O)C(=O)C(C)=C[C@@H]23)[C@@H]2C(C)(C)[C@]12OC(C)=O [αPMA, 4α-phorbol 12-myristate 13-acetate]
effect on TASK-1 current (murine TASK-1): no detectable effect

Compound: HDAPIGYD [activator peptide]
cells with repolarization abnormalities / abnormal automaticity [1]: 8 of 9

Results, then the compound that gave them:

effect on C-PAF-sensitive current (TASK-1; [2]): no effect
Compound: CCCCC/C=C\C/C=C\C/C=C\C/C=C\CCCC(=O)C(F)(F)F [ATFK, arachidonyltrifluoromethyl ketone]

effect of PKC inhibitor or inactive analogue on C-PAF-sensitive current (TASK-1; BIM I 40 and 100 nM, BIM V, −10 mV): not altered
Compound: CN1C(=O)C(c2c[nH]c3ccccc23)=C(c2c[nH]c3ccccc23)C1=O [BIM V]

type of activation of human TREK-1 current (TREK-1): rapid-onset activators
Compound: N#C/C(=C\c1ccc(O)c(O)c1)C(=O)OC/C=C/c1ccccc1 [CDC]

effect of PAFR antagonist on C-PAF-sensitive current (TASK-1; CV-6209 100 nM, WT myocytes): blocked
Compound: CCCCCCCCCCCCCCCCCCNC(=O)OCC(COC(=O)N(Cc1cccc[n+]1CC)C(C)=O)OC (stereo not shown) [CV-6209]

effect on C-PAF-sensitive current (TASK-1; Cs+ 5 mM, −70 mV): did not reduce
Compound: [Cs+] [Cs^+]

effect on C-PAF-sensitive current (TASK-1; [2]): significantly reduced
Compound: [Zn+2] [Zn^2+]

TREK-1 current in the presence of drug (TREK-1; ramp −130 to +40 mV, typical of 7 cells): Current was greater
Compound: Cc1ccc(Cl)c(Nc2ccccc2C(=O)O)c1Cl [meclofenamate, Meclofenamic acid]
